Assay: cn = amount concentration of the nth substance listed, in mol/dm3
Conditions: Liquid; for mass density: 7 kPa, Pycnometric method; for speed of sound: 101 kPa

[Cl-].[K+] [potassium chloride] + O
c1 = 1.5
Conditions	mass density [kg/m3]	speed of sound [m/s]
303.15 K	1061.4	1584
308.15 K	1059.7	1590.4
313.15 K	1057.8	1595.8
318.15 K	1055.6	1601.6
323.15 K	1053.3	1606.2

O=[N+]([O-])[O-].[K+] [potassium nitrate] + O
c1 = 1
Conditions	mass density [kg/m3]	speed of sound [m/s]
303.15 K	1052.9	1541.8
308.15 K	1051.1	1550.2
313.15 K	1049	1557.4
318.15 K	1046.7	1563.6
323.15 K	1044.2	1568.4

O=S(=O)([O-])[O-].[K+].[K+] [potassium sulfate] + O
c1 = 0.5
Conditions	mass density [kg/m3]	speed of sound [m/s]
303.15 K	1059.3	1571.2
308.15 K	1057.9	1578.8
313.15 K	1056.1	1587.6
318.15 K	1054.2	1592.6
323.15 K	1051.9	1597.6

Source: the NIST ThermoML archive (doi:10.1016/j.jct.2006.03.009)
